The target of assay [1] is T1, Kynureninase (Homo sapiens, UniProt Q16719).
T1 sequence (Q16719 whole entry): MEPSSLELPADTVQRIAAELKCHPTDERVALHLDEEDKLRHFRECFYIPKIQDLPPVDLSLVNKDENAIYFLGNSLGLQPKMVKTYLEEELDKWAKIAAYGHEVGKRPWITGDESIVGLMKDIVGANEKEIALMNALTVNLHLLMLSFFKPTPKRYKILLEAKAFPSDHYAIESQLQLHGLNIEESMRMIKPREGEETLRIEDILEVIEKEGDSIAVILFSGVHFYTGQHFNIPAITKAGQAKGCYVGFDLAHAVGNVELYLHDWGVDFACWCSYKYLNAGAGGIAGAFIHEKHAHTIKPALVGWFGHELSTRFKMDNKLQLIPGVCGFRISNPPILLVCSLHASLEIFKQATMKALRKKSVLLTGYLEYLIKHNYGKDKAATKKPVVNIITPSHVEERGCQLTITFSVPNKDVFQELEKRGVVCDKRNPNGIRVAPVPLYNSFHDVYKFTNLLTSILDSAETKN
The experiment in a line: Tested for binding affinity against kynureninase enzyme from human.

The target in assay [2] is T2, Kynureninase (Rattus norvegicus, UniProt P70712).
T2 sequence (P70712 whole entry): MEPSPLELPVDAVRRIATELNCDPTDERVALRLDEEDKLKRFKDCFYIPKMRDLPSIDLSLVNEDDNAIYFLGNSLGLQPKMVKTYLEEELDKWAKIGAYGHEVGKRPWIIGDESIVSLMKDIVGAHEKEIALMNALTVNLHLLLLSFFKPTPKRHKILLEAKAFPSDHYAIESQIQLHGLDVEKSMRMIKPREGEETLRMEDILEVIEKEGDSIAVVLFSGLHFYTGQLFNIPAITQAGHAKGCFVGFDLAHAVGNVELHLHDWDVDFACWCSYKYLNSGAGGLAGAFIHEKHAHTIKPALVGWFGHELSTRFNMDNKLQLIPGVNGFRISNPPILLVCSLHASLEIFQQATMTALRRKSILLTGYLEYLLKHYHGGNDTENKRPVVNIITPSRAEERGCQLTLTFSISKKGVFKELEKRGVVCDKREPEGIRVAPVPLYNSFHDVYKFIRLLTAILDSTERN
The experiment in a line: Tested for binding affinity against kynureninase enzyme from rat.

As to `NC(CC(O)c1cccc(O)c1)C(=O)O` (configuration not stated), the figures for the Ki in assay [1] and in assay [2] were 100 nM and 130 nM, respectively.
